The record followed here is patent US20230364074A1, “Compounds and Compositions for Disrupting Programmed Ribosomal Frameshifting” (YALE UNIVERSITY, priority 2020, published 2023).

The assay has as its system SARS-CoV-2 FSE mutants. The assay is classed as cell-based.

On to `CCNCC1CCN(c2c(F)cc3c(=O)c(C(=O)O)cn(CC)c3c2F)C1` (centres unmarked) [merafloxacin, 1-ethyl-7-[3-(ethylaminomethyl)pyrrolidin-1-yl]-6,8-difluoro-4-oxoquinoline-3-carboxylic acid], for which the “frameshifting inhibition in structure-perturbing FSE mutants” value is given as “significantly inhibited frameshifting in all variants” and the “−1 PRF inhibition in naturally occurring FSE variants” value is recorded as “inhibited −1 PRF in all variants with similar efficacy”.
